ChEMBL document CHEMBL4311942, “Design of Trp-Rich Dodecapeptides with Broad-Spectrum Antimicrobial Potency and Membrane-Disruptive Mechanism” (J Med Chem, 2019)
Active and inactive are the calls of the source. Where a SMILES comes first, the peptide text is derived from it.

Key:
Staphylococcus aureus [1] = assay: Antibacterial activity against Staphylococcus aureus ATCC 25923 incubated for 18 to 24 hrs by broth microdilution method; type: functional
Staphylococcus aureus [2] = assay: Antibacterial activity against Staphylococcus aureus ATCC 29213 incubated for 18 to 24 hrs by broth microdilution method; type: functional
Salmonella typhimurium = assay: Antibacterial activity against Salmonella enterica serovar typhimurium C77-31 incubated for 18 to 24 hrs by broth microdilution method; type: functional, Salmonella enterica subsp. enterica serovar Typhimurium
Escherichia coli [3] = assay: Antibacterial activity against Escherichia coli UB1005 incubated for 18 to 24 hrs by broth microdilution method; type: functional
Escherichia coli [4] = assay: Antibacterial activity against Escherichia coli ATCC 25922 incubated for 18 to 24 hrs by broth microdilution method; type: functional
[5] = tested on: Staphylococcus epidermidis; assay: Antibacterial activity against Staphylococcus epidermidis ATCC 12228 incubated for 18 to 24 hrs by broth microdilution method; type: functional
Erythrocyte = assay: Haemolytic activity in human erythrocytes assessed as lowest concentration causing 5% hemolysis after 1 hr; type: ADME, cell-based
[6] = Therapeutic index, ratio of MHC for human RBC to geometric mean of peptide MIC for Escherichia coli ATCC 25922; type: toxicity; settings: pooled result: one value given for 6 cell lines, strains, targets or settings, read-out: TI
[7] = (§1) Cytotoxicity against mouse RAW264.7 cells assessed as cell survival at <= 32 uM after 24 hrs by MTT assay relative to control; type: cell-based; settings: RAW264.7 cells, up to 32 µM, read-out: Activity
Staphylococcus aureus [8] = assay: Antibacterial activity against Staphylococcus aureus ATCC 29213 incubated for 2 hrs in presence of sodium phosphate buffer at pH 2 by broth microdilution method; type: functional; settings: ATCC 29213, 2 h
Escherichia coli [9] = assay: Antibacterial activity against Escherichia coli ATCC 25922 using preheated compound at 100 degreeC for 1 hr by broth microdilution method; type: functional; settings: ATCC 25922, 1 h
Escherichia coli [10] = assay: Antibacterial activity against Escherichia coli ATCC 25922 in presence of NaCl by broth microdilution method; type: functional
Escherichia coli [11] = assay: Antibacterial activity against Escherichia coli ATCC 25922 in presence of KCl by broth microdilution method; type: functional
Escherichia coli [12] = assay: Antibacterial activity against Escherichia coli ATCC 25922 in presence of NH4Cl by broth microdilution method; type: functional
Escherichia coli [13] = assay: Antibacterial activity against Escherichia coli ATCC 25922 in presence of MgCl2 by broth microdilution method; type: functional
Escherichia coli [14] = assay: Antibacterial activity against Escherichia coli ATCC 25922 in presence of ZnCl2 by broth microdilution method; type: functional
Escherichia coli [15] = assay: Antibacterial activity against Escherichia coli ATCC 25922 in presence of CaCl2 by broth microdilution method; type: functional
Escherichia coli [16] = assay: Antibacterial activity against Escherichia coli ATCC 25922 in presence of FeCl3 by broth microdilution method; type: functional
Escherichia coli [17] = assay: Antibacterial activity against Escherichia coli ATCC 25922 in presence of 12.5% serum by broth microdilution method; type: functional
Escherichia coli [18] = assay: Antibacterial activity against Escherichia coli ATCC 25922 in presence of 25% serum by broth microdilution method; type: functional
Escherichia coli [19] = assay: Antibacterial activity against Escherichia coli ATCC 25922 in presence of 50% serum by broth microdilution method; type: functional
Escherichia coli [20] = assay: Antibacterial activity against Escherichia coli ATCC 25922 incubated for 2 hrs in presence of sodium phosphate buffer at pH 2 by broth microdilution method; type: functional; settings: ATCC 25922, 2 h
Escherichia coli [21] = assay: Antibacterial activity against Escherichia coli ATCC 25922 incubated for 2 hrs in presence of sodium phosphate buffer at pH 4 by broth microdilution method; type: functional; settings: ATCC 25922, 2 h
Escherichia coli [22] = assay: Antibacterial activity against Escherichia coli ATCC 25922 incubated for 2 hrs in presence of sodium phosphate buffer at pH 10 by broth microdilution method; type: functional; settings: ATCC 25922, 2 h
Escherichia coli [23] = assay: Antibacterial activity against Escherichia coli ATCC 25922 incubated for 2 hrs in presence of sodium phosphate buffer at pH 12 by broth microdilution method; type: functional; settings: ATCC 25922, 2 h
Escherichia coli [24] = assay: Antibacterial activity against Escherichia coli ATCC 25922 in presence of H202 by broth microdilution method; type: functional
Escherichia coli [25] = assay: Antibacterial activity against Escherichia coli ATCC 25922 in presence of NaBH4 by broth microdilution method; type: functional
Staphylococcus aureus [26] = assay: Antibacterial activity against Staphylococcus aureus ATCC 29213 using preheated compound at 100 degreeC for 1 hr by broth microdilution method; type: functional; settings: ATCC 29213, 1 h
Staphylococcus aureus [27] = assay: Antibacterial activity against Staphylococcus aureus ATCC 29213 in presence of NaCl by broth microdilution method; type: functional
Staphylococcus aureus [28] = assay: Antibacterial activity against Staphylococcus aureus ATCC 29213 in presence of KCl by broth microdilution method; type: functional
Staphylococcus aureus [29] = assay: Antibacterial activity against Staphylococcus aureus ATCC 29213 in presence of NH4Cl by broth microdilution method; type: functional
Staphylococcus aureus [30] = assay: Antibacterial activity against Staphylococcus aureus ATCC 29213 in presence of MgCl2 by broth microdilution method; type: functional
Staphylococcus aureus [31] = assay: Antibacterial activity against Staphylococcus aureus ATCC 29213 in presence of ZnCl2 by broth microdilution method; type: functional
Staphylococcus aureus [32] = assay: Antibacterial activity against Staphylococcus aureus ATCC 29213 in presence of CaCl2 by broth microdilution method; type: functional
Staphylococcus aureus [33] = assay: Antibacterial activity against Staphylococcus aureus ATCC 29213 in presence of FeCl3 by broth microdilution method; type: functional
Staphylococcus aureus [34] = assay: Antibacterial activity against Staphylococcus aureus ATCC 29213 in presence of 12.5% serum by broth microdilution method; type: functional
Staphylococcus aureus [35] = assay: Antibacterial activity against Staphylococcus aureus ATCC 29213 in presence of 25% serum by broth microdilution method; type: functional
Staphylococcus aureus [36] = assay: Antibacterial activity against Staphylococcus aureus ATCC 29213 in presence of 50% serum by broth microdilution method; type: functional
Staphylococcus aureus [37] = assay: Antibacterial activity against Staphylococcus aureus ATCC 29213 incubated for 2 hrs in presence of sodium phosphate buffer at pH 4 by broth microdilution method; type: functional; settings: ATCC 29213, 2 h
Staphylococcus aureus [38] = assay: Antibacterial activity against Staphylococcus aureus ATCC 29213 incubated for 2 hrs in presence of sodium phosphate buffer at pH 10 by broth microdilution method; type: functional; settings: ATCC 29213, 2 h
Staphylococcus aureus [39] = assay: Antibacterial activity against Staphylococcus aureus ATCC 29213 incubated for 2 hrs in presence of sodium phosphate buffer at pH 12 by broth microdilution method; type: functional; settings: ATCC 29213, 2 h
Staphylococcus aureus [40] = assay: Antibacterial activity against Staphylococcus aureus ATCC 29213 in presence of H202 by broth microdilution method; type: functional
Staphylococcus aureus [41] = assay: Antibacterial activity against Staphylococcus aureus ATCC 29213 in presence of NaBH4 by broth microdilution method; type: functional
[42] = Solubility of the compound; type: physicochemical
RAW264.7 = assay: as §1; type: cell-based; settings: raw264.7, 24 h
Acinetobacter baumannii [43] = assay: Antibacterial activity against Acinetobacter baumannii AB1901 clinical isolate incubated for 18 to 24 hrs by broth microdilution method; type: functional
Acinetobacter baumannii [44] = assay: Antibacterial activity against Acinetobacter baumannii AB1902 clinical isolate incubated for 18 to 24 hrs by broth microdilution method; type: functional
Escherichia coli [45] = assay: Resistance index, ratio of MIC for antibacterial activity against Escherichia coli ATCC 25922 treated over 35 serial passage by sequential passaging method to MIC for antibacterial activity against Escherichia coli ATCC 25922 incubated for 18 to 24 hrs by broth microdilution method; type: functional
Lipopolysaccharide (LPS) = assay: Displacement of BODIPY-TR-cadaverine from Escherichia coli O111:B4 LPS by spectrofluorophotometric method
Escherichia coli [46] = assay: Induction of outer membrane permeabilization in Escherichia coli UB1005 assessed as increase in NPN uptake at 0.5 to 4 uM by spectrofluorophotometric assay; type: organism-based
Escherichia coli [47] = assay: Induction of cytoplasmic membrane depolarization in Escherichia coli UB1005 at 2 uM by DiSC3-5 dye based fluorescence method; type: organism-based
Escherichia coli [48] = assay: Inhibition of swimming motility of Escherichia coli ATCC 25922 at 1 to 4 uM after 16 hrs; type: functional, organism-based
Pseudomonas aeruginosa = assay: Antibacterial activity against Pseudomonas aeruginosa PAO1 at sub-MIC treated over 35 serial passages by resistant development assay; type: functional, organism-based

CC(C)C[C@H](NC(=O)[C@H](CCCNC(=N)N)NC(=O)[C@H](CCCCN)NC(=O)[C@H](CCCNC(=N)N)NC(=O)[C@@H](NC(=O)[C@H](CCCCN)NC(=O)[C@H](CCCCN)NC(=O)[C@H](CCCNC(=N)N)NC(=O)[C@H](CC(C)C)NC(=O)[C@H](CCCNC(=N)N)NC(=O)[C@@H](N)CCCNC(=N)N)[C@@H](C)O)C(=O)N[C@@H](CCCCN)C(N)=O (H-RRLRKKTRKRLK-NH2)
> 128 µM: MIC (Staphylococcus aureus [1]) | MIC (Staphylococcus aureus [2]) | MIC (Salmonella typhimurium) | MIC (Escherichia coli [4]) | MIC [5] | MHC (Erythrocyte) | MIC (Staphylococcus aureus [8]) | MIC (Escherichia coli [9]) | MIC (Escherichia coli [10]) | MIC (Escherichia coli [11]) | MIC (Escherichia coli [12]) | MIC (Escherichia coli [13]) | MIC (Escherichia coli [14]) | MIC (Escherichia coli [15]) | MIC (Escherichia coli [16]) | MIC (Escherichia coli [17]) | MIC (Escherichia coli [18]) | MIC (Escherichia coli [19]) | MIC (Escherichia coli [20]) | MIC (Escherichia coli [21]) | MIC (Escherichia coli [22]) | MIC (Escherichia coli [23]) | MIC (Escherichia coli [24]) | MIC (Escherichia coli [25]) | MIC (Staphylococcus aureus [26]) | MIC (Staphylococcus aureus [27]) | MIC (Staphylococcus aureus [28]) | MIC (Staphylococcus aureus [29]) | MIC (Staphylococcus aureus [30]) | MIC (Staphylococcus aureus [31]) | MIC (Staphylococcus aureus [32]) | MIC (Staphylococcus aureus [33]) | MIC (Staphylococcus aureus [34]) | MIC (Staphylococcus aureus [35]) | MIC (Staphylococcus aureus [36]) | MIC (Staphylococcus aureus [37]) | MIC (Staphylococcus aureus [38]) | MIC (Staphylococcus aureus [39]) | MIC (Staphylococcus aureus [40]) | MIC (Staphylococcus aureus [41])
64 µM: MIC (Escherichia coli [3])
≥ 70%: viability at 24 h [7]
1.26: selectivity ratio [6]

CC(C)C[C@H](NC(=O)[C@H](CCCNC(=N)N)NC(=O)[C@H](Cc1c[nH]c2ccccc12)NC(=O)[C@H](CCCNC(=N)N)NC(=O)[C@@H](NC(=O)[C@H](Cc1c[nH]c2ccccc12)NC(=O)[C@H](Cc1c[nH]c2ccccc12)NC(=O)[C@H](CCCNC(=N)N)NC(=O)[C@H](CC(C)C)NC(=O)[C@H](Cc1c[nH]c2ccccc12)NC(=O)[C@@H](N)CCCNC(=N)N)[C@@H](C)O)C(=O)N[C@@H](CCCCN)C(N)=O (H-RWLRWWTRWRLK-NH2)
128 µM: MHC (Erythrocyte)
40.4: selectivity ratio [6]
2 µM: MIC (Staphylococcus aureus [1]) | MIC (Escherichia coli [3])
≥ 70%: viability at 24 h [7]
4 µM: MIC (Staphylococcus aureus [2]) | MIC (Salmonella typhimurium) | MIC (Escherichia coli [4]) | MIC [5]
Insoluble: solubility [42]

CC(C)C[C@H](NC(=O)[C@H](Cc1c[nH]c2ccccc12)NC(=O)[C@H](CCCCN)NC(=O)[C@H](CCCNC(=N)N)NC(=O)[C@@H](NC(=O)[C@H](Cc1c[nH]c2ccccc12)NC(=O)[C@H](CCCCN)NC(=O)[C@H](CCCNC(=N)N)NC(=O)[C@H](CC(C)C)NC(=O)[C@H](Cc1c[nH]c2ccccc12)NC(=O)[C@@H](N)CCCNC(=N)N)[C@@H](C)O)C(=O)N[C@@H](CCCCN)C(N)=O (H-RWLRKWTRKWLK-NH2)
Non-Toxic: Activity (RAW264.7)
8 µM: MIC (Staphylococcus aureus [2]) | MIC [5]
> 128 µM: MHC (Erythrocyte)
16 µM: MIC (Staphylococcus aureus [1]) | MIC (Salmonella typhimurium)
4 µM: MIC (Escherichia coli [3]) | MIC (Escherichia coli [4])
32: selectivity ratio [6]

CC[C@H](C)[C@H](NC(=O)CN)C(=O)NCC(=O)N[C@@H](C)C(=O)N[C@H](C(=O)N[C@@H](CC(C)C)C(=O)N[C@@H](CCCCN)C(=O)N[C@H](C(=O)N[C@@H](CC(C)C)C(=O)N[C@H](C(=O)N[C@H](C(=O)NCC(=O)N[C@@H](CC(C)C)C(=O)N1CCC[C@H]1C(=O)N[C@@H](C)C(=O)N[C@@H](CC(C)C)C(=O)N[C@H](C(=O)N[C@@H](CO)C(=O)N[C@@H](Cc1c[nH]c2ccccc12)C(=O)N[C@H](C(=O)N[C@@H](CCCCN)C(=O)N[C@@H](CCCNC(=N)N)C(=O)N[C@@H](CCCCN)C(=O)N[C@@H](CCCNC(=N)N)C(=O)N[C@@H](CCC(N)=O)C(=O)N[C@@H](CCC(N)=O)C(N)=O)[C@@H](C)CC)[C@@H](C)CC)[C@@H](C)O)[C@@H](C)O)C(C)C)C(C)C [MELITTIN]
active: Activity (Lipopolysaccharide (LPS)) Dose-dependent effect | Activity (Escherichia coli [46]) | Activity (Escherichia coli [47]) | inhibition (Escherichia coli [48])
4: Ratio (Escherichia coli [45])
0.25 µM: MHC (Erythrocyte)
2 µM: MIC (Acinetobacter baumannii [43]) | MIC (Acinetobacter baumannii [44])
inactive: Activity (Pseudomonas aeruginosa)
